What was measured:
[1] = tested on: promoter region of the human calcitonin gene (C1-3 reporter cells, TT human thyroid carcinoma); test: Calcitonin/Luciferase Reporter Gene Expression Assay (transcription activation ratio); format: cell-based; conditions: C13, 12 h, C1-3 cells, active if TAR>1.5, read-out: TAR (transcription activation ratio, luciferase activity with test compound vs untreated control)
[2] = tested on: Phosphodiesterase IV (PDE-IV) isolated from human U937 cells; test: Inhibition of Phosphodiesterase IV (PDE-IV) Isolated from Human U937 Cells; format: biochemical; conditions: for IC50: linear regression of percent inhibition data bracketing 50% inhibition; for % Inhibition of PDE IV (normalized to rolipram): 1 μM [3H]-cAMP substrate
[3] = tested on: calcitonin secreted by the C1-3 cell line (TT medullary thyroid carcinoma); test: Calcitonin Secretion/RIA Assay; format: cell-based; conditions: Homo sapiens, C13, C1-3 cells, active if Secretion Ratio>2.5
Method: Calcitonin Secretion/RIA Assay Protocol
This assay was used to determine the ability of a compound to increase the amount of calcitonin secreted by the C1-3 cell line.
Cell Line: C1-3 (Parent Cell Line: TT-medullary thyroid carcinoma),
1. Glass tubes were labeled to include Total Count (TC), Nonspecific Binding (NSB), Maximum Binding (Bo), Standards, Controls and Patient Sera in duplicate.
2. […] of Standard Zero (Reagent D) was added to tubes 3 through 6 (NSB and Bo).
3. […] of Standards* (Reagents E-1) was added to tubes 7-16 as follows:
4. […] of Patient Serum 1 was added to tubes 21 and 22, Patient Serum 2 was added to tubes 23 and 24, etc.
5. […] of Reagent L (NSB Buffer) was added to tubes 3 and 4.
6. […] of Reagent A (Anti-Calcitonin) was added to all tubes except tubes 1 & 2 (TC) and tube 3 & 4 (NSB). All tubes were vortexed, covered with parafilm or foil and incubated 44±6 hours at 2-8° C.
7. […] of 125.vertline.Calcitonin (Reagent B) was added to all tubes. All tubes were vortexed, covered with parafilm or foil and incubated 22±3 hours at 2-8° C.
8. Reagent C (Anti-Goat Precipitant) was mixed gently but thoroughly by inverting the vial several times before use. 1 mL Reagent C was added to all tubes except 1 and 2 (TC). Tubes were vortexed and incubated 20 minutes at room temperature.
9. All tubes were centrifuged at 1300-1500×g for 15 minutes at 2-8° C.
10. Supernatant was decanted immediately after centrifugation taking care to leave the precipitate intact.
11. Tubes were counted 4 minutes or longer.
Secretion Ratio: Stimulation of calcitonin secretion is expressed as a ratio of secretion activity in the presence of test compound compared to the secretion activity in the untreated control: [formula]
Secretion Activity: Compounds were designated active if Secretion Ratio>2.5.

[4] = tested on: Ovarietomy Induced Osteopenia in Rats; test: Ovarietomy Induced Osteopenia in Rats (trabecular BMD); format: in vivo; conditions: Rattus norvegicus, 672 h; 30 mg/kg/day, ip; 4 weeks; n=8; * p < 0.005 vs. vehicle value (Examples 6, 12, 18); read-out: Percent Protection (trabecular BMD)
[5] = post-menopausal osteoporosis; cited from earlier work
[6] = cited from earlier work

IC50 [2]	Compound	fold induction at 30 µM [1]	% Inhibition of PDE IV (normalized to rolipram) [2]	fold induction at 30 µM [3]	inhibition in vivo at 30 mg/kg [4]	effect on bone mass and total body calcium [5]	incidence of hip and vertebral fractures [5]	oral bioavailability (in words) [6]
6 µM	CCCCn1c(=O)c2c(ncn2S(=O)(=O)c2c(C)cc(C)cc2C)n(CCCC)c1=O [Example 12, 1,3-Dibutyl-7-(2,4,6-trimethyl-benzenesulfonyl)-3,7-dihydro-purine-2,6-dione]	2.1	42%	4.04	50%			
	CCCCn1c(=O)c2c(ncn2S(=O)(=O)c2cccs2)n(CCCC)c1=O [Example 5, 1,3-Dibutyl-7-(thiophene-2-sulfonyl)-3,7-dihydro-purine-2,6-dione]	1.8	52%					
	CCCCn1c(=O)c2c(ncn2S(=O)(=O)c2ccc(N(OC(C)=O)C(C)=O)cc2)n(CCCC)c1=O [Example 11, N-Acetoxy-N-[4-(1,3-dibutyl-2,6-dioxo-1,2,3,6-tetrahydro-purine-7-sulfonyl)-phenyl]-acetamide]	2.1		4.3				
	CCCCn1c(=O)c2c(ncn2S(=O)(=O)c2ccc(NO)cc2)n(CCCC)c1=O [Example 8, 1,3-Dibutyl-7-(4-hydroxyamino-benzenesulfonyl)-3,7-dihydro-purine-2,6-dione]	2	82%	5.4	-2%			
5.2 µM	CCCCn1c(=O)n(CC=C(C)C)c(=O)c2c1ncn2S(=O)(=O)c1ccc(C)cc1 [Example 15, 3-Butyl-1-(3-methyl-but-2-enyl)-7-(toluene-4-sulfonyl)-3,7-dihydro-purine-2,6-dione]	2.1	35%	3.74	15%			
	CCCCn1c(=O)c2c(ncn2S(=O)(=O)c2c(C)noc2C)n(CCCC)c1=O [Example 14, 1,3-Dibutyl-7-(3,5-dimethyl-isoxazole-4-sulfonyl)-3,7-dihydro-purine-2,6-dione]	2.5	20%	3.3				
3.2 µM	CCCCn1c(=O)c2c(ncn2S(=O)(=O)Cc2ccccc2)n(CCCC)c1=O [Example 9, 1,3-Dibutyl-7-phenylmethanesulfonyl-3,7-dihydro-purine-2,6-dione]	2.3	93%	5.1	25%			
25.2 µM	CCCCn1c(=O)c2c(ncn2S(C)(=O)=O)n(CCCC)c1=O [Example 1, 1,3-Dibutyl-7-methanesulfonyl-3,7-dihydro-purine-2,6-dione]	2.1	16%	4.65				
	CCCCn1c(=O)c2c(ncn2S(=O)(=O)CCCC)n(CCCC)c1=O [Example 2, 7-(Butane-1-sulfonyl)-1,3-dibutyl-3,7-dihydro-purine-2,6-dione]	2.2	97%	4.65	23%			
	CCCCn1c(=O)c2c(ncn2S(=O)(=O)c2ccc(C(C)(C)C)cc2)n(CCCC)c1=O [Example 13, 1,3-Dibutyl-7-(4-tert-butyl-benzenesulfonyl)-3,7-dihydro-purine-2,6-dione]	1.8	66%	5.1	13%			
4.1 µM	CCCCn1c(=O)c2c(ncn2S(=O)(=O)CCCCl)n(CCCC)c1=O [Example 6, 1,3-Dibutyl-7-(3-chloro-propane-1-sulfonyl)-3,7-dihydro-purine-2,6-dione]	2	44%	3.6	47%			
	calcitonin: 32 amino acid polypeptide hormone secreted by the parafollicular or C cells of the thyroid gland					maintenance of bone mass and total body calcium	decreases in the incidence of hip and vertebral fractures	lack of oral bioavailability
	CCCCn1c(=O)c2c(nc(C)n2S(=O)(=O)CCCCl)n(CCCC)c1=O [Example 19, 1,3-Dibutyl-7-(3-chloro-propane-1-sulfonyl)-8-methyl-3,7-dihydro-purine-2,6-dione]	1.7	5%	4.09				
	CCCCn1c(=O)c2c(ncn2S(=O)(=O)C[C@@]23CC[C@@H](CC2=O)C3(C)C)n(CCCC)c1=O [Example 10, 1,3-Dibutyl-7-(7,7-dimethyl-2-oxo-bicyclo[2.2. 1]hept-1-ylmethanesulfonyl)-3,7-dihydro-purine-2,6-dione]	2	89%	4.5	-10%			
	CCCCn1c(=O)n(CC=C(C)C)c(=O)c2c1ncn2S(=O)(=O)c1ccc(OC)c(OC)c1 [Example 17, 3-Butyl-7-(3,4-dimethoxy-benzenesulfonyl)-1-(3-methyl-but-2-enyl)-3,7-dihydro-purine-2,6-dione]	2.8	24%	3.66				
6 µM	CCCCn1c(=O)n(CC)c(=O)c2c1ncn2S(=O)(=O)c1ccc(C)cc1 [Example 16, 3-Butyl-1-ethyl-7-(toluene-4-sulfonyl)-3,7-dihydro-purine-2,6-dione]	2.1	38%					
23.3 µM	CCCCn1c(=O)c2c(ncn2S(=O)(=O)c2cc(C)c(Cl)cc2C)n(CCCC)c1=O [Example 18, 1,3-Dibutyl-7-(4-chloro-2,5-dimethyl-benzenesulfonyl)-3,7-dihydro-purine-2,6-dione]	2.5	37%	5.32	52%			
	CCCCn1c(=O)c2c(nc(C)n2S(=O)(=O)c2ccc(C)cc2)n(CCCC)c1=O [Example 20, 1,3-Dibutyl-8-methyl-7-(toluene-4-sulfonyl)-3,7-dihydro-purine-2,6-dione]	2	58%	3.23				
	CCCCn1c(=O)c2c(ncn2S(=O)(=O)c2cccc([N+](=O)[O-])c2)n(CCCC)c1=O [Example 3, 1,3-Dibutyl-7-(3-nitro-benzenesulfonyl)-3,7-dihydro-purine-2,6-dione]	2	87%	1.65	30%			
1.2 µM	CCCCn1c(=O)c2c(ncn2S(=O)(=O)c2ccc(OC)c(OC)c2)n(CCCC)c1=O [Example 4, 1,3-Dibutyl-7-(3,4-dimethoxy-benzenesulfonyl)-3,7-dihydro-purine-2,6-dione]	2.5	41%	4.7	35%			
	CCCCn1c(=O)c2c(ncn2S(=O)(=O)c2cccc3ccccc23)n(CCCC)c1=O [Example 7, 1,3-Dibutyl-7-(naphthalene-1-sulfonyl)-3,7-dihydro-purine-2,6-dione]	2.5	83%	4.5	37%			
